Test results: PMC8246065 (The EMBO Journal, 2021)

Experiments:
NOD2 = NOD2 (Homo sapiens, UniProt Q9HC29); assay: Microscale thermophoresis (MST) binding to purified NOD2-GFP; conditions: read-out: Kd value of ADP alone with NOD2
Experimental: (§1) The lysates were incubated with 2 ml GFP‐Trap agarose at 4°C for 4 h. The agarose was collected with Poly‐Prep columns by gravity flow. […] To remove heat shock proteins, columns were further washed with 50 ml wash buffer III (50 mM Tris–HCl, pH 7.5, 150 mM NaCl, 5 mM MgCl2+, 1 mM ATP). To elute the proteins, the agarose was mixed with 2 ml elution buffer (100 mM Glycine, pH 2.5) for 1 min and the eluted proteins were immediately neutralized with 0.2 ml of 1 M Tris, pH 10.5.

NOD1 [1] = test system: NOD1; design: method as in Askari et al, 2012; conditions: quoted by referee; ref Askari et al, 2012; read-out: NOD1 affinity, IC50; cited from earlier work
NOD1 [2] = biological target: T1, NOD1 (Homo sapiens, UniProt Q9Y239); assay: Microscale thermophoresis (MST) binding to purified NOD1-GFP; conditions: read-out: Kd value of ADP alone with NOD1
T1 sequence (Q9Y239 1-953): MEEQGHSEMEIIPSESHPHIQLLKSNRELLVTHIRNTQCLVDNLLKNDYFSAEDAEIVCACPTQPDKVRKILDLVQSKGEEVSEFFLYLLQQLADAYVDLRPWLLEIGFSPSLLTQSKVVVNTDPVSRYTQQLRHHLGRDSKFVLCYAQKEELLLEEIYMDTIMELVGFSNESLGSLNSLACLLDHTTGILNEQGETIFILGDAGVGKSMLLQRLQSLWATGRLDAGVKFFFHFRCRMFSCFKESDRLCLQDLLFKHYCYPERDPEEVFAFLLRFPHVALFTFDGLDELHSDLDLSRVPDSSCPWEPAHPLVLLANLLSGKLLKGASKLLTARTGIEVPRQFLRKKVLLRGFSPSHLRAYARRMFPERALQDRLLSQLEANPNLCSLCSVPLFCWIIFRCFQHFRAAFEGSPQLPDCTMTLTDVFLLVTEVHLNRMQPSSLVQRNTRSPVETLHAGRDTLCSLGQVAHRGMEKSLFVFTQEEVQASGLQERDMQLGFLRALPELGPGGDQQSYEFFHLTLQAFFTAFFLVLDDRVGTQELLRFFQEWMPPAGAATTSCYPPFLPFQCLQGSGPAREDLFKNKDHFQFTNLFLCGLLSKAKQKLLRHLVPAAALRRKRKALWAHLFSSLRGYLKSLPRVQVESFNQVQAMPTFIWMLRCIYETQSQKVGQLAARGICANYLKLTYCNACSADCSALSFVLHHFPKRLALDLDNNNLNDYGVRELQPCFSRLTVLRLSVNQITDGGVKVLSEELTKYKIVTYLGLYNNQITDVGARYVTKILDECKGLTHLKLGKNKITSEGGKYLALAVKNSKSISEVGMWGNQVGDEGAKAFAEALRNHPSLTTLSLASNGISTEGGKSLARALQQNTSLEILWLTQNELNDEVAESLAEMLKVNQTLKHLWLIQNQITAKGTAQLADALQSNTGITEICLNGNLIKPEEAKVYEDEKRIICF
Experimental: as §1

[3] = test system: human dermal fibroblasts (HDFs); assay: S1P quantification by ELISA in cell lysates; type: cell-based; conditions: primary fibroblasts, Fig 3C
Experimental: Human neonatal dermal fibroblasts were grown in DMEM full medium. For each condition, 2x T75 flask cells were required. After 4‐h stimulation with various stressors, cells were washed with PBS and collected in lysis buffer (20 mM PIPES PH7.4, 150 mM NaCl, 1 mM EGTA, 1% v/v Triton X‐100, 1.5 mM MgCl2, 0.1% SDS, 1X PhosSTOP, 1X Protease inhibitor cocktail without EDTA). Protein concentration was measured by BCA assay kit (Thermo Fisher) and diluted with delipidized serum to 1 µg/µl. Then, the diluted samples were added into S1P ELISA plates according to the instructions.

BMDMs and fibroblasts = assay: Cell death upon stressor treatment; type: cell-based; conditions: same concentration
Experimental: Cell viability assays were performed with CellTiter 96 AQueous one solution reagent (Promega) according to the manufacturer’s instructions. Cell viability upon various stimulations was normalized to corresponding controls.

THP‐1 cells = assay: IL6 expression and production in THP-1 cells upon ER stress (de novo vs hydrolysis pathway inhibitors); type: cell-based, human; conditions: THP-1, tunicamycin 5 µg/ml, Appendix Fig S2
Experimental: The human monocytic cell line THP‐1 was obtained from the American Type Culture Collection (ATCC, TIB‐202) and maintained in RPMI 1640 (Gibco, 31870) with 10% (v:v) heat‐inactivated fetal bovine serum (FBS, Sigma‐Aldrich, F0804), 1 mM sodium pyruvate (Gibco, 11360070), 2 mM L‐glutamine (Gibco, 25030081), 10 mM HEPES buffer (Gibco, 15630080), pH 7.2‐7.5, and 50 µM 2‐mercaptoethanol (Gibco, 31350010). To differentiate THP‐1 into macrophage‐like cells, THP‐1 cells were stimulated with 50 ng/ml phorbol 12‐myristate 13‐acetate (Sigma‐Aldrich, P8139) for 24 h and then incubated with fresh medium for another 48 h. HEK293T WT and HEK293T NOD1/2 dKO cells were generated as described (Dagil et al, 2016). HeLa inducible NOD1‐GFP and NOD2‐GFP cells were generated by co‐transfection of pcDNA5/FRT/TO‐EGFP‐NOD1 or pcDNA5/FRT/TO‐EGFP‐NOD2 (Addgene #131206 and #131207) together with pOG44 in a 9:1 ratio into HeLa FlpIN T‐REx cells (kindly provided by the Hentze Lab, EMBL, Heidelberg) using Lipofectamine 2000 (Thermo Fisher Scientific) and selected with 10 µg/ml blasticidin and 500 µg/ml hygromycin B. HeLa inducible NOD1‐GFP and NOD2‐GFP cells, human neonatal dermal fibroblasts, and HEK293T cells (DSMZ, ACC305) were maintained in complete Dulbecco’s modified Eagle’s medium (DMEM) 4.5 g/l glucose (Gibco, 10938) with 10% (v:v) heat‐inactivated FBS, 1 mM sodium pyruvate, and 2 mM L‐glutamine. To induce NOD1 or NOD2 expression, HeLa NOD1 or NOD2 cells were treated with 0.5 µg/ml or 0.25 µg/ml doxycycline for at least 16 h, respectively. All cells have been checked for mycoplasma contamination regularly. […]
(§2) Total RNA was isolated with TRIzol reagent, as described by the manufacturer (Invitrogen). […] Gene expression was normalized to glyceraldehyde‐3‐phosphate dehydrogenase (GAPDH), and fold changes were calculated against corresponding controls. qRT–PCR data were representative of at least three independent experiments, with at least 2 technical replicates per experiment. […]

[4] = test system: HDFs and HeLa inducible NOD1 or NOD2 cells; assay: IL6 expression and production in response to various stressors with sphingosine kinase inhibition; type: cell-based, human; conditions: SPHKi 50 µM (Fig 3D-G)
Experimental: (§3) The human monocytic cell line THP‐1 was obtained from the American Type Culture Collection (ATCC, TIB‐202) and maintained in RPMI 1640 (Gibco, 31870) with 10% (v:v) heat‐inactivated fetal bovine serum (FBS, Sigma‐Aldrich, F0804), 1 mM sodium pyruvate (Gibco, 11360070), 2 mM L‐glutamine (Gibco, 25030081), 10 mM HEPES buffer (Gibco, 15630080), pH 7.2‐7.5, and 50 µM 2‐mercaptoethanol (Gibco, 31350010). To differentiate THP‐1 into macrophage‐like cells, THP‐1 cells were stimulated with 50 ng/ml phorbol 12‐myristate 13‐acetate (Sigma‐Aldrich, P8139) for 24 h and then incubated with fresh medium for another 48 h. HEK293T WT and HEK293T NOD1/2 dKO cells were generated as described (Dagil et al, 2016). […]
as §2

[5] = test system: THP‐1 cells, BMDMs, and human CD14+ monocytes; assay: IL6 expression and production upon tunicamycin-induced ER stress with sphingolipid pathway inhibitors; type: cell-based; conditions: inhibitor pretreatment, tunicamycin 5 µg/ml; all types of cells
Experimental: as §3, §2

Chain of NOD2 (Q9HC29 whole entry): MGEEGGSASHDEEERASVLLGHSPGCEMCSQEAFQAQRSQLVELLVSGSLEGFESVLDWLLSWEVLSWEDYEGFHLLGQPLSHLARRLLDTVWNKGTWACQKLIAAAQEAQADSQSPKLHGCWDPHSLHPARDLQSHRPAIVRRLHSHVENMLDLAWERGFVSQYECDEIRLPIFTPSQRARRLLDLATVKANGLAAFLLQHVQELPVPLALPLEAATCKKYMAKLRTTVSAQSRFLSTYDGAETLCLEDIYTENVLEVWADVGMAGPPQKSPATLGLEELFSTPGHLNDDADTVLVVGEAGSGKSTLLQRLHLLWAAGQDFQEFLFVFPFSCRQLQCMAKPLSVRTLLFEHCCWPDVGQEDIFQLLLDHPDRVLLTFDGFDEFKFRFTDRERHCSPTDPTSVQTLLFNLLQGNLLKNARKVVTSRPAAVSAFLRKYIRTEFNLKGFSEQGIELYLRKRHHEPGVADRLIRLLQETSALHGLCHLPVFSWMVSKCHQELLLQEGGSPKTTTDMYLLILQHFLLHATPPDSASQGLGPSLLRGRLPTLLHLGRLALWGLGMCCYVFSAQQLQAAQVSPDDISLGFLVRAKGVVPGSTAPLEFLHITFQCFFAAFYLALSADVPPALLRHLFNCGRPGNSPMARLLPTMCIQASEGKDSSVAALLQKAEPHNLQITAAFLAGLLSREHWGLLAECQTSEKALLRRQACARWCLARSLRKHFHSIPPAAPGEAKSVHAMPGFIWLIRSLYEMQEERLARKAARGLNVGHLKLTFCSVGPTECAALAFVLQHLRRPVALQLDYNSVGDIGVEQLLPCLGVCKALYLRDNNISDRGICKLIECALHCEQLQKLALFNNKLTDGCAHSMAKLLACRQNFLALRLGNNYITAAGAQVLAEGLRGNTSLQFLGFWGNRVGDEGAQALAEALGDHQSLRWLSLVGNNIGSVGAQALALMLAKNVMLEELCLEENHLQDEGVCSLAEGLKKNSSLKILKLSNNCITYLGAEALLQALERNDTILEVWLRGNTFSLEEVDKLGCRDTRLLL

## Nc1ncnc2c1ncn2[C@@H]1O[C@H](COP(=O)(O)OP(=O)(O)O)[C@@H](O)[C@H]1O [ADP]
NOD2
  Kd: ~150 nM
NOD1 [1]
  IC50: ~190 nM
NOD1 [2]
  Kd: ~100 nM

## Nc1ncnc2c1ncn2[C@@H]1O[C@H](COP(=O)(O)OP(=O)(O)OP(=O)(O)O)[C@@H](O)[C@H]1O [ATP]
NOD1 [1]
  IC50: ~15 nM

## C[C@@H]1C[C@@H]([C@H](O)CC2CC(=O)NC(=O)C2)C(=O)[C@@H](C)C1 [CHX, cycloheximide]
[3]
  Level of S1P in fibroblasts upon stressor: highest level of S1P in fibroblasts
BMDMs and fibroblasts
  Cell death in BMDMs compared with fibroblasts: higher

## O=C(/C=C/c1ccc(/C=C/C(=O)Nc2ccc(C3=NCCN3)cc2)cc1)Nc1ccc(C2=NCCN2)cc1 [GW4869]
THP‐1 cells
  IL6 expression and production upon ER stress: not

## N[C@H]1CON=C1O [L‐cycloserine]
THP‐1 cells
  IL6 expression and production upon ER stress: not

## Oc1ccc(Nc2nc(-c3ccc(Cl)cc3)cs2)cc1 [SKI‐II]
[4]
  IL6 expression and production in response to various stressors: markedly diminished
[5]
  IL6 expression and production upon tunicamycin-induced ER stress: abolished

## COc1ccc(/C=C/C(=O)c2c(-c3ccccc3)c3ccccc3[nH]c2=O)cc1 [ceranib‐2]
[5]
  IL6 expression and production upon tunicamycin-induced ER stress: abolished

## CN(C)CCCN1c2ccccc2CCc2ccccc21 [imipramine]
THP‐1 cells
  IL6 expression and production upon ER stress: abrogated
